Positions of bridges follow the written chain, without caps; N, C: chain ends. Non-standard residues stand in square brackets, D forms with d. Residues, ends and D or L forms follow the SMILES beside them. Groups on a side chain read outwards from the residue. Chains are numbered I, II in the order given. No end group written: not given here. *: point of attachment. C20 diacid = O=C(O)CCCCCCCCCCCCCCCCCCC(=O)*; C16 diacid = O=C(O)CCCCCCCCCCCCCCC(=O)*; Aib = CC(C)(N)C(=O)O

Data set [1] is described as follows: Solubility by visual inspection of peptide solutions. The format is physicochemical. How it is done:
(§1) Peptides were either dissolved in sodium phosphate buffer (50 mM, pH 7.4, filtered) or dissolved in ultrapure (MilliQ) water (adjusted to pH 7.4 with NaOH, filtered) (see Table 3). All peptide samples were prepared to a concentration of 1, 5, 7.5 or 15 mg/ml. All samples, with the exception of reference peptides GIP(3-30), AT158, and AT482 dissolved readily and produced clear and colorless solutions with gentle mixing. Peptide samples were subsequently filtered through 0.22 μm nylon filters (Q-Max® RR syringe filter, 13 mm, Frisenette, DK) to produce particle-free solutions. All samples were added to a 96-well plate reader for the ThT assay at t=0.
Clear visual appearance may be taken as an indicator of the immediate solubility of the peptide. […] Thus, A13Aib and/or N24E substitutions appear to increase solubility.

The nature of data set [2]: Physical stability: fibril formation in Thioflavin T (ThT) assay with agitation. In kind it is physicochemical. As to conditions: 25° C., agitation. How it is done:
Continuous measurement of the fluorescence emission at 486 nm can be used as a measure of fibrillation behavior of peptides and proteins. The time until onset of fibrillation or fibrillation lag time is estimated here by defining the lag time (Tlag) as the point in time where the signal relative to the pre-transition baseline has reached 10% of the post-transition baseline.
50 mM sodium phosphate buffer for dissolving some samples was prepared in ultrapure water (Milli-Q® Reference A+ System, Merck) with a resistivity of 18.2 MΩ·cm. The buffer was adjusted to pH 7.4 and filtered.
The ultrapure water (MilliQ) for dissolving some samples was adjusted to pH 7.4 with NaOH and filtered prior to sample preparation.
as §1
For each sample, […] ThT (1 mM) was added to 1.2 mL peptide solution. From this sample mixture, an amount of 200 uL/well was pipetted into four or five wells (n=4 or 5). Blank samples (buffer+ThT) were also included. One 3 mm silica bead was added to each well containing samples and the plate was subjected to orbital rotation at 300 rpm to agitate and stress the samples. The temperature was kept at 25° C. throughout the measurement.

In the case of `CC[C@H](C)[C@H](NC(=O)[C@H](CO)NC(=O)[C@H](Cc1ccc(O)cc1)NC(=O)[C@H](CC(=O)O)NC(=O)[C@H](CO)NC(=O)[C@@H](NC(=O)[C@H](Cc1ccccc1)NC(=O)[C@@H](NC(=O)CNC(=O)[C@@H](N)CCC(=O)O)[C@@H](C)O)[C@@H](C)CC)C(=O)N[C@@H](C)C(=O)N[C@@H](CCSC)C(=O)N[C@@H](CC(=O)O)C(=O)N[C@@H](CCCCN)C(=O)N[C@H](C(=O)N[C@@H](CCCCNC(=O)CCCCCCCCCCCCCCCCCCC(=O)O)C(=O)N[C@@H](CCC(N)=O)C(=O)N[C@@H](CCC(N)=O)C(=O)N[C@@H](CC(=O)O)C(=O)N[C@@H](Cc1ccccc1)C(=O)N[C@H](C(=O)N[C@@H](CCC(=O)O)C(=O)N[C@@H](Cc1c[nH]c2ccccc12)C(=O)N[C@@H](CC(C)C)C(=O)N[C@@H](CC(C)C)C(=O)N[C@@H](C)C(=O)N[C@@H](CCC(N)=O)C(=O)N[C@@H](CCCCN)C(=O)N1CCC[C@H]1C(=O)N[C@@H](CO)C(=O)N[C@@H](CO)C(=O)NCC(=O)N[C@@H](C)C(=O)N1CCC[C@H]1C(=O)N1CCC[C@H]1C(=O)N1CCC[C@H]1C(=O)N[C@@H](CO)C(=O)O)C(C)C)[C@@H](C)CC` [AT750] (H-EGTFISDYSIAMDKIK(C20 diacid)QQDFVEWLLAQKPSSGAPPPS-OH; N-terminus assumed), the Visual appearance entry in data set [1] (1 mg/ml, TFA, Phosphate (7.4)) is “Clear”. In data set [2] (1 mg/ml, TFA, Phosphate (7.4)), the “Avr lag time (h)” value is reported as “fnd (Fnd = fibrils not detected within experiment time (96 hours) with agitation.)”.

With `CC[C@H](C)[C@H](NC(=O)[C@H](CCCCN)NC(=O)[C@H](CCC(=O)O)NC(=O)[C@H](CC(C)C)NC(=O)C(C)(C)NC(=O)[C@@H](NC(=O)[C@H](CO)NC(=O)[C@H](Cc1ccc(O)cc1)NC(=O)[C@H](CCC(=O)O)NC(=O)[C@H](CO)NC(=O)[C@@H](NC(=O)[C@H](Cc1ccccc1)NC(=O)[C@@H](NC(=O)CNC(=O)[C@@H](N)CCC(=O)O)[C@@H](C)O)[C@@H](C)CC)[C@@H](C)CC)C(=O)N[C@@H](CCCCNC(=O)[C@H](C)NC(=O)[C@H](CCC(=O)O)NC(=O)[C@H](CC(C)C)NC(=O)[C@H](C)NC(=O)CCCCCCCCCCCCCCC(=O)O)C(=O)N[C@@H](CCC(N)=O)C(=O)N[C@@H](CCC(N)=O)C(=O)N[C@@H](CCC(=O)O)C(=O)N[C@@H](Cc1ccccc1)C(=O)N[C@H](C(=O)N[C@@H](CCC(=O)O)C(=O)N[C@@H](Cc1c[nH]c2ccccc12)C(=O)N[C@@H](CC(C)C)C(=O)N[C@@H](CC(C)C)C(=O)N[C@@H](C)C(=O)N[C@@H](CCC(N)=O)C(=O)N[C@@H](CCCCN)C(=O)N1CCC[C@H]1C(=O)N[C@@H](CO)C(=O)N[C@@H](CO)C(=O)NCC(=O)N[C@@H](C)C(=O)N1CCC[C@H]1C(=O)N1CCC[C@H]1C(=O)N1CCC[C@H]1C(=O)N[C@@H](CO)C(=O)O)C(C)C` [AT725] (H-EGTFISEYSI[Aib]LEKIK([Ala-Glu-Leu-Ala-C16 diacid])QQEFVEWLLAQKPSSGAPPPS-OH; N-terminus assumed), in data set [1] (1 mg/ml, TFA, Phosphate (7.4)), the Visual appearance result is given as “Clear”. Also, the “Avr lag time (h)” value in data set [2] (1 mg/ml, TFA, Phosphate (7.4)) is listed as “fnd (Fnd = fibrils not detected within experiment time (96 hours) with agitation.)”.

With `CC[C@H](C)[C@H](NC(=O)[C@H](CCCCN)NC(=O)[C@H](CC(=O)O)NC(=O)[C@H](CCSC)NC(=O)C(C)(C)NC(=O)[C@@H](NC(=O)[C@H](CO)NC(=O)[C@H](Cc1ccc(O)cc1)NC(=O)[C@H](CC(=O)O)NC(=O)[C@H](CO)NC(=O)[C@@H](NC(=O)[C@H](Cc1ccccc1)NC(=O)[C@@H](NC(=O)CNC(=O)[C@@H](N)CCC(=O)O)[C@@H](C)O)[C@@H](C)CC)[C@@H](C)CC)C(=O)N[C@@H](CCCCNC(=O)CCCCCCCCCCCCCCC(=O)O)C(=O)N[C@@H](CCC(N)=O)C(=O)N[C@@H](CCC(N)=O)C(=O)N[C@@H](CC(=O)O)C(=O)N[C@@H](Cc1ccccc1)C(=O)N[C@H](C(=O)N[C@@H](CC(N)=O)C(=O)N[C@@H](Cc1c[nH]c2ccccc12)C(=O)N[C@@H](CC(C)C)C(=O)N[C@@H](CC(C)C)C(=O)N[C@@H](C)C(=O)N[C@@H](CCC(N)=O)C(=O)N[C@@H](CCCCN)C(=O)N1CCC[C@H]1C(=O)N[C@@H](CO)C(=O)N[C@@H](CO)C(=O)NCC(=O)N[C@@H](C)C(=O)N1CCC[C@H]1C(=O)N1CCC[C@H]1C(=O)N1CCC[C@H]1C(=O)N[C@@H](CO)C(=O)O)C(C)C` [AT760] (H-EGTFISDYSI[Aib]MDKIK(C16 diacid)QQDFVNWLLAQKPSSGAPPPS-OH; N-terminus assumed), the Visual appearance result is listed as “Clear” in data set [1] (1 mg/ml, TFA, Phosphate (7.4)) and “Clear” in data set [1] (5 mg/ml, TFA, MilliQ). The “Avr lag time (h)” value is given as “fnd (Fnd = fibrils not detected within experiment time (96 hours) with agitation.)” in data set [2] (1 mg/ml, TFA, Phosphate (7.4)) and “fnd (Fnd = fibrils not detected within experiment time (96 hours) with agitation.)” in data set [2] (5 mg/ml, TFA, MilliQ).

On to `CC[C@H](C)[C@H](NC(=O)[C@H](C)NC(=O)[C@H](Cc1ccc(O)cc1)NC(=O)[C@H](CC(=O)O)NC(=O)[C@H](CO)NC(=O)[C@@H](NC(=O)[C@H](Cc1ccccc1)NC(=O)[C@@H](NC(=O)CNC(=O)[C@@H](N)CCC(=O)O)[C@@H](C)O)[C@@H](C)CC)C(=O)N[C@@H](C)C(=O)N[C@@H](CCSC)C(=O)N[C@@H](CC(=O)O)C(=O)N[C@@H](CCCCN)C(=O)N[C@H](C(=O)N[C@@H](CCCCNC(=O)CCCCCCCCCCCCCCC(=O)O)C(=O)N[C@@H](CCC(N)=O)C(=O)N[C@@H](CCC(N)=O)C(=O)N[C@@H](CC(=O)O)C(=O)N[C@@H](Cc1ccccc1)C(=O)N[C@H](C(=O)N[C@@H](CCC(=O)O)C(=O)N[C@@H](Cc1c[nH]c2ccccc12)C(=O)N[C@@H](CC(C)C)C(=O)N[C@@H](CC(C)C)C(=O)N[C@@H](C)C(=O)N[C@@H](CCC(N)=O)C(=O)N[C@@H](CCCCN)C(=O)N1CCC[C@H]1C(=O)N[C@@H](CO)C(=O)N[C@@H](CO)C(=O)NCC(=O)N[C@@H](C)C(=O)N1CCC[C@H]1C(=O)N1CCC[C@H]1C(=O)N1CCC[C@H]1C(=O)N[C@@H](CO)C(=O)O)C(C)C)[C@@H](C)CC` [AT746] (H-EGTFISDYAIAMDKIK(C16 diacid)QQDFVEWLLAQKPSSGAPPPS-OH; N-terminus assumed), for which the Visual appearance result in data set [1] (1 mg/ml, TFA, Phosphate (7.4)) is “Clear”. Further, the “Avr lag time (h)” value in data set [2] (1 mg/ml, TFA, Phosphate (7.4)) is on record as “fnd (Fnd = fibrils not detected within experiment time (96 hours) with agitation.)”.

In the case of “I: EGTFISEYSI[Aib]LEKIKQQEFVEWLLAQKPSSGAPPPS-OH / II: {C16 diacid}-GGGGS (amide I:16-II:C) [AT722]”, the Visual appearance result in data set [1] (1 mg/ml, TFA, Phosphate (7.4)) was “Clear”; in data set [1] (7.5 mg/ml, Na, MilliQ (8)) it was “Clear”; in data set [1] (15 mg/ml, Na, MilliQ (8)), “Clear”. Also, the “Avr lag time (h)” value is reported as “fnd (Fnd = fibrils not detected within experiment time (96 hours) with agitation.)” in data set [2] (1 mg/ml, TFA, Phosphate (7.4)); “fnd (Fnd = fibrils not detected within experiment time (96 hours) with agitation.)” in data set [2] (7.5 mg/ml, Na, MilliQ (8)); “fnd (Fnd = fibrils not detected within experiment time (96 hours) with agitation.)” in data set [2] (15 mg/ml, Na, MilliQ (8)).

In the case of `CC[C@H](C)[C@H](NC(=O)[C@H](CO)NC(=O)[C@H](Cc1ccc(O)cc1)NC(=O)[C@H](CC(=O)O)NC(=O)[C@H](CO)NC(=O)[C@@H](NC(=O)[C@H](Cc1ccccc1)NC(=O)[C@@H](NC(=O)CNC(=O)[C@@H](N)CCC(=O)O)[C@@H](C)O)[C@@H](C)CC)C(=O)N[C@@H](C)C(=O)N[C@@H](CCSC)C(=O)N[C@@H](CC(=O)O)C(=O)N[C@@H](CCCCN)C(=O)N[C@H](C(=O)N[C@@H](CCCCNC(=O)CCCCCCCCCCCCCCC(=O)O)C(=O)N[C@@H](CCC(N)=O)C(=O)N[C@@H](CCC(N)=O)C(=O)N[C@@H](CC(=O)O)C(=O)N[C@@H](Cc1ccccc1)C(=O)N[C@H](C(=O)N[C@@H](CC(N)=O)C(=O)N[C@@H](Cc1c[nH]c2ccccc12)C(=O)N[C@@H](CC(C)C)C(=O)N[C@@H](CC(C)C)C(=O)N[C@@H](C)C(=O)N[C@@H](CCC(N)=O)C(=O)N[C@@H](CCCCN)C(=O)O)C(C)C)[C@@H](C)CC` [AT719] (H-EGTFISDYSIAMDKIK(C16 diacid)QQDFVNWLLAQK-OH; N-terminus assumed), the Visual appearance entry in data set [1] (1 mg/ml, TFA, Phosphate (7.4)) is given as “Clear”. In data set [2] (1 mg/ml, TFA, Phosphate (7.4)), the “Avr lag time” value is under 8 h.

The values above are taken from US20230416330A1, “Optimized GIP Peptide Analogues” (Antag Therapeutics ApS, priority 2019, published 2023).
